Here are results for 10 compounds from US20140249135A1, “PIM KINASE INHIBITORS AND METHODS OF THEIR USE” (NOVARTIS AG, priority 2007, published 2014).

Each structure is given as a SMILES string.

Format in all cases: biochemical
For one assay, the target named is Pim1 kinase (Homo sapiens, UniProt P11309). In words: Pim1 ATP depletion assay.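 Note: Luciferase-luciferin luminescence readout of residual ATP after PIM1 transfers phosphate to a peptide substrate, 40 µM ATP added, reaction run to roughly half ATP consumption.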 The settings on record: Pim1 ATP depletion assay; read-out: PIM1 IC50.
Another assay concerns the target Pim2 kinase (Homo sapiens, UniProt Q9P1W9). In words: Pim2 ATP depletion assay.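 Note: Luciferase-based luminescent readout of ATP remaining after PIM2 phosphorylates a BAD peptide, final 5 nM enzyme, 4 µM ATP, 10 µM peptide, 2.5% DMSO, run to roughly half ATP consumption.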 The settings on record: read-out: PIM2 IC50.
The target in another assay is Pim3 kinase (Homo sapiens, UniProt Q86V86). In words: Pim3 ATP depletion assay. The settings on record: read-out: PIM3 IC50.

Chain of Pim1 kinase (P11309 whole entry): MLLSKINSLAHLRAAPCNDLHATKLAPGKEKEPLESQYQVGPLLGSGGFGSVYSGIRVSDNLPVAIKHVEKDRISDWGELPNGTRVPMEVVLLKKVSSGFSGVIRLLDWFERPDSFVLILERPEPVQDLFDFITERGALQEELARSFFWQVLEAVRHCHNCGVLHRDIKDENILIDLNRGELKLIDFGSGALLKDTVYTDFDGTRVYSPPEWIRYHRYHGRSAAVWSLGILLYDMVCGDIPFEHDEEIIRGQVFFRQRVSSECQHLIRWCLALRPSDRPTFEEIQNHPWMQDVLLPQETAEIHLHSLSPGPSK
Chain of Pim2 kinase (Q9P1W9 whole entry): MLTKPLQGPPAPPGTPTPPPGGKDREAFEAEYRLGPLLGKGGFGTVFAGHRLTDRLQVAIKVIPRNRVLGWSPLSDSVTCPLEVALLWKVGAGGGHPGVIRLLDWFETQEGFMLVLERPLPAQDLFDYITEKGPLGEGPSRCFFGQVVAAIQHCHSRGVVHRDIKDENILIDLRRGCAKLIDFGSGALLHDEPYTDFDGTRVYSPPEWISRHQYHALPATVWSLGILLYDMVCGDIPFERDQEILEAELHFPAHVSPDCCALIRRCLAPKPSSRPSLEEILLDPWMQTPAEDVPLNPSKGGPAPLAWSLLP

By IC50 is commonly meant the concentration that gives 50% inhibition. `COc1ccc(-c2ccc(N)c(C(=O)Nc3cnccc3N3CCC[C@H](N)C3)n2)nc1` [Example 696, 5-Amino-5′-methoxy-[2,2′]bi-pyridinyl-6-carboxylic acid (3-amino-3,4,5,6-tetrahydro-2H-[1,4′]bipyridinyl-3′-yl)-amide]: the half-inhibitory concentration (IC50) at Pim1 kinase, on Pim2 kinase and at Pim3 kinase was < 1 µM throughout.

Regarding `COc1cccnc1-c1ccc(N)c(C(=O)Nc2cnccc2N2CCC[C@H](N)C2)n1` [Example 697, 5-Amino-3′-methoxy-[2,2′]bi-pyridinyl-6-carboxylic acid (3-amino-3,4,5,6-tetrahydro-2H-[1,4′]bipyridinyl-3′-yl)-amide], the 50% inhibitory concentration (IC50) on Pim1 kinase was < 1 µM; on Pim2 kinase, 1 to 10 µM; at Pim3 kinase, < 1 µM.

Consider `CS(=O)(=O)c1ccc(-c2ccc(N)c(C(=O)Nc3cnccc3N3CCC[C@H](N)C3)n2)nc1` [Example 698, 5-Amino-5′-methanesulfonyl-[2,2′]bipyridinyl-6-carboxylic acid (3-amino-3,4,5,6-tetra-hydro-2H-[1,4′]bipyridinyl-3′-yl)-amide], for which the IC50 at Pim1 kinase, on Pim2 kinase and on Pim3 kinase was < 1 µM each time.

In the case of `CSc1ccc(-c2ccc(N)c(C(=O)Nc3cnccc3N3CCC[C@H](N)C3)n2)nc1` [Example 699, 5-Amino-5′-methylsulfanyl-[2,2′]bipyridinyl-6-carboxylic acid (3-amino-3,4,5,6-tetra-hydro-2H-[1,4′]bipyridinyl-3′-yl)-amide], the IC50 on Pim1 kinase, at Pim2 kinase and at Pim3 kinase was < 1 µM in each case.

Take `Nc1ccc(-c2ncc(Cl)cc2Cl)nc1C(=O)Nc1cnccc1N1CCC[C@H](N)C1` [Example 700, 5-Amino-3′,5′-dichloro-[2,2′]bi-pyridinyl-6-carboxylic acid (3-amino-3,4,5,6-tetrahydro-2H-[1,4′]bipyridinyl-3′-yl)-amide]: the 50% inhibitory concentration (IC50) at Pim1 kinase, at Pim2 kinase and on Pim3 kinase was < 1 µM each time.

As to `Cc1cc(Cl)cnc1-c1ccc(N)c(C(=O)Nc2cnccc2N2CCC[C@H](N)C2)n1` [Example 701, 5-Amino-5′-chloro-3′-methyl-[2,2′]bipyridinyl-6-carboxylic acid (3-amino-3,4,5,6-tetra-hydro-2H-[1,4′]bipyridinyl-3′-yl)-amide], the IC50 at Pim1 kinase, at Pim2 kinase and at Pim3 kinase was < 1 µM each time.

Take `Nc1ccc(-c2cccc(-n3cccn3)n2)nc1C(=O)Nc1cnccc1N1CCC[C@H](N)C1` [Example 703, 5-Amino-6′-pyrazol-1-yl-[2,2′]bipyridinyl-6-carboxylic acid (3-amino-3,4,5,6-tetra-hydro-2H-[1,4′]bipyridinyl-3′-yl)-amide]: the IC50 on Pim1 kinase, at Pim2 kinase and on Pim3 kinase was < 1 µM in each case.

`NC(=O)c1ccnc(-c2ccc(N)c(C(=O)Nc3cnccc3N3CCC[C@H](N)C3)n2)c1` [Example 704, 5′-Amino-[2,2′]bipyridinyl-4,6′-dicarboxylic acid 4-amide 6′-[(3-amino-3,4,5,6-tetrahydro-2H-[1,4′]bipyridinyl-3′-yl)-amide]]: the IC50 on Pim1 kinase, at Pim2 kinase and on Pim3 kinase was < 1 µM throughout.

As for `COc1nc(-c2ccc(N)c(C(=O)Nc3cnccc3N3CCC[C@H](N)C3)n2)ccc1N` [Example 705, 5,5′-Diamino-6′-methoxy-[2,2′]bipyridinyl-6-carboxylic acid (3-amino-3,4,5,6-tetra-hydro-2H-[1,4′]bipyridinyl-3′-yl)-amide], the IC50 on Pim1 kinase, on Pim2 kinase and on Pim3 kinase was < 1 µM each time.

Consider `CC(=O)c1cccc(-c2ccc(N)c(C(=O)Nc3cnccc3N3CCC[C@H](N)C3)n2)n1` [Example 706, 6′-Acetyl-5-amino-[2,2′]bi-pyridinyl-6-carboxylic acid (3-amino-3,4,5,6-tetrahydro-2H-[1,4′]bipyridinyl-3′-yl)-amide], for which the IC50 at Pim1 kinase, at Pim2 kinase and at Pim3 kinase was < 1 µM throughout.
